Assay results from patent US20190211317A1, “PEPTIDES AND NANOPARTICLES FOR INTRACELLULAR DELIVERY OF GENOME-EDITING MOLECULES” (Aadigen, LLC, priority 2016, published 2019).
Where “and” joins values, the source holds several entries; their conditions need not be identical. Identical values can stand only once. No end group written: not given here.

Assays:
[1] = CPP/CAS9 and CPP/CAS9:gRNA particle size, polydispersity, zeta potential (Zetasizer 4); assay type: physicochemical
Experimental: The CPP/CAS9 and CPP/CAS9/sgRNA particles were further characterized; the mean size, polydispersity and zeta potential were measured with Zetasizer 4 apparatus (Malvern Ltd). […] The mean size and the polydispersity of the CCP/CAS9 and CCP/CAS9:gRNA complexes were determined at 25° C. for 3 min per measurement and zeta potential was measured with Zetasizer 4 apparatus (Malvern Ltd).

[2] = tested on: EGFP reporter gene in EGFP-U2OS, EGFP-HEK, EGFP-JURKAT cells; assay: EGFP reporter gene disruption from CPP delivery of CAS9:sgRNA (flow cytometry); assay type: cell-based, human; conditions: for reduction of EGFP-positive cells: EGFP-JURKAT; for decrease in EGFP expression: CAS9:gRNA 50 nM, CPP:cargo 20:1; for reduction of EGFP-expressing cells / loss of EGFP expression: JURKAT;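 on all read-outs here: cells carrying one integrated EGFP reporter received peptide-complexed CAS9 preloaded 1:1 with EGFP sgRNA, cultured 72 h, then EGFP level read by flow cytometry, lipofectamine 2000 and RNAiMAX as positive controls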
Experimental: Efficacy of CPP-mediated delivery was quantified using a well-established CAS9-induced gene disruption method (Fu et al, 2013, supra), by targeting a specific site in the exogenous EGFP gene reporter in three human cell lines expressing EGFP (GFP-U2OS, EGFP-HEK, EGFP-JURKAT).
Stock solutions of amphipathic peptides were prepared at 1 mg/mL in distilled water and sonicated for 10 min. CAS9 protein was preloaded with purified EGFP sgRNA at a molar ratio of 1:1 and incubated for 10 min prior to forming complexes with the peptides. Preloaded CAS9/gRNA complexes (10 nM, 25 nM, and 50 nM) were mixed with CPPs at 5:1, 10:1 and 20:1 molar ratios of CPP to cargo and incubated for 30 min at 37° C. prior to cell transfection.
Cell line containing a single integrated EGFP reporter gene (GFP-U2OS, EGFP-HEK and EGFP-JURKAT) were cultured in Dulbecco's Modified Eagle's Medium (DMEM), supplemented with 2 mM glutamine, 1% antibiotics (streptomycin 10,000 μg/mL, penicillin, 10,000 IU/mL) and 10% (w/v) foetal calf serum (FCS) at 37° C. in a humidified atmosphere containing 5% CO2. A total of 150,000 cells seeded in a 35 mm dish the day prior to transfection were grown to 50-60% confluence and overlaid with 200 μl of preformed complexes, incubated for 3-5 min, then 400 μl of DMEM was added. After 30 min incubation at 37° C., 1 mL of fresh DMEM containing 16% FCS was added to reach a final FCS concentration of 10%, without removing the overlay of CPP/CAS9-gRNA complexes. Cells were returned to the incubator for 72 hours.
CAS9-induced double-strand break formation was analyzed using flow cytometry by monitoring level of EGFP expression. […] Both lipofectamine 2000 and RNAiMAX delivery methods were used as positive controls.

[3] = tested on: endogenous hPD1 gene in JURKAT and K562 cells; assay: hPD1 gene editing in T cell lines (T7E1 assay); assay type: cell-based, human; conditions: CAS9/sgRNA 5 μg/10 μg
Experimental: CAS9 protein was preloaded with purified sgRNA at a molar ratio of 1:1 and incubated for 10 min prior to forming complexes with peptides.
5×10^6 cells were washed twice with DPBS by centrifuging at 800 rpm for 5 minutes and resuspended in 100 ^l transfection buffer, and then transferred into the electroporation cuvette. An optimized program selected for both high transfection and high efficiency on T cells was used. After electroporation, cells were resuspended in 500 ^l pre-warmed AIM-V medium containing 10% FBS and incubated at 37° C. in 5% CO2. The transfection efficiency was evaluated after 48 hr by flow cytometry or T7E1 assay.
RNAiMAX delivery method was used as positive control. Cells were either resuspended in or overlaid with 100 μl of preformed complexes, incubated for 3-5 min, and then 300 μl of DMEM was added. […] The indel frequency in the hPD1 gene was quantified using the T7E1 assay.

[4] = tested on: hPD1 gene in human T cells; assay: hPD1 gene editing in primary human T cells (T7E1 assay); assay type: cell-based
Experimental: T cells were isolated from PBMCs (2 different donors) using anti-CD3/anti-CD28 antibodies bound to paramagnetic beads (Dynabeads ClinExVivo CD3/CD28, Invitrogen) at a ratio of 3:1 (beads:cells). The cells and beads were co-incubated for 2 hours at room temperature and CD3′ cell enrichment was performed using Dynal ClinExVIVO MPC magnet (Thermo Fisher). The anti-CD3/anti-CD28 paramagnetic beads were removed, washed and concentrated. Cells in the CD3′ fraction were resuspended in activation media at a concentration of 1×10^6 cells/ml with AIM-V medium (Thermo Fishers) supplemented with 10% fetal calf serum, 300 IU/ml IL2 and 50 ng/ml OKT3 (MuromonAB-CD3) for two days.
Cells were transfected by electroporation with CD-19 plasmid or gRNA/CAS9 (5 μg/10 μg) using a Nucleofector 2b (Lonza, Germany) with the Amaxa Human T cells Nucleofector Kit, VPA-1002 (Lonza, Germany). 5×10^6 cells were washed twice with DPBS by centrifuging at 800 rpm for 5 minutes and resuspended in 100 ^l transfection buffer, and then transferred into the electroporation cuvette. An optimized program selected for both high transfection and high efficiency on T cells was used. After electroporation, cells were resuspended in 500 ^l pre-warmed AIM-V medium containing 10% FBS and incubated at 37° C. in 5% CO2. The transfection efficiency was evaluated after 48 hr by flow cytometry or T7E1 assay.
As control, CAS9 loaded with gRNA targeting GFP was used.
Cells were returned to the incubator for 72 hours. CAS9-induced double-strand break followed by repair through non-homologous end joining (NHEJ) was analyzed by either the T7E1 assay or using the Genome Cleavage Detection kit (GCD Thermo Fisher) and quantified using Fragment Analyzer System. The indel frequency in the target gene was quantified using the T7E1 assay. The cultures were expanded and analyzed for viability and PD1 levels every 10 days. T cell expansion medium contained AIM V medium, supplemented with 5% heat-inactivated human AB Serum, 1% Gluta-Max, and 300 IU/mL IL-2.

[5] = tested on: EGFP-U2OS, EGFP-HEK, EGFP-JURKAT cells; assay: Toxicity of CPP/CAS9/gRNA complexes (MTT assay); assay type: cell-based; conditions: three cell lines; concentrations up to 100 nM; 24 h
Experimental: The robust EGFP disruption observed in the three cell lines was found not to be the result of cellular toxicity. […] A total of 30,000 cells seeded in 24-well plates the day prior to transfection were incubated with increasing concentrations of CPP/CAS9/gRNA (complexed at a 10:1 or 20:1 molar ratio of CPP to preloaded CAS9/gRNA complex) ranging from 1 to 200 nM for 30 min prior to addition of medium to reach a final 10% concentration of FCS. Cytotoxic response was measured 24 hours later by colorimetric MTT assay (Sigma, Germany). For MTT assay, cell culture medium was removed and replaced with PBS containing 2.5 mg/ml MTT for 4 hours. Results correspond to the average of 3 separate experiments. […] Viability was reduced by less than 10% at 200 nM. In contrast, at […] for Lipofectamine 2000 or RNAiMAX, between 60-70% and 20-25% cell death was observed, depending on cell line. Moreover, both lipid methods appeared to be highly toxic on JURKAT cells, inducing 75% (lipofectamine 2000) or 45% (RNAiMAX) cell death.

[6] = tested on: endogenous EMX1 gene in U2OS, JURKAT and K562 cells; assay: EMX1 gene editing from CPP delivery of CAS9/gRNA (T7E1 assay); assay type: cell-based, human
Experimental: RNAiMAX delivery was used as a positive control as it was previously reported to show better results than Lipofectamine 2000 (Zuris et al., 2015, supra). […] Cells were returned to the incubator for 72 hours.

[7] = tested on: endogenous EMX1 and exogenous EGFP reporter genes in GFP-U2OS, EGFP-JURKAT cells; assay: Delivery of multiple RGEN/gRNA complexes: EMX1 and EGFP editing; assay type: cell-based, human
Experimental: RNAiMAX delivery was used as positive control. Cells were treated as described previously and CAS9-induced NHEJ analyzed 72 hr after transfection. […] The deletion (indel) frequency in the EMX1 gene was quantified using the T7E1 assay and loss of EGFP expression was monitored by flow cytometry. Data for on-target mutations induced by RGEN/gRNA are reported as an average of 3 separate experiments.

[8] = tested on: endogenous EMX1, AAVS and HPRT genes in U2OS and Human (H9) embryonic stem cells; assay: Delivery of multiple RGEN:gRNA complexes: EMX1, AAVS, HPRT editing in U2OS and H9 ES cells (T7E1); assay type: cell-based
Experimental: (§1) RNAiMAX delivery method was used as a positive control.
(§2) U2OS cells were treated as described previously. H9 embryonic stem cells were cultured in Dulbecco's modified Eagle's medium with 4 mM L-glutamine adjusted to contain 1.5 g/L sodium bicarbonate and 4.5 g/L glucose and supplemented with 0.1 mM 2-mercaptoethanol, 85%; and 15% ES-Cell Qualified fetal bovine serum. […] CAS9-induced double-strand break formation followed by repair through NHEJ was analyzed 72 hr after transfection by T7E1 assay and quantified using Fragment Analyzer System. The deletion (indel) frequencies in EMX1, AAVS and HPRT genes were quantified using T7E1 assay. Data for on-target mutations induced by RGEN:gRNA are reported as an average of 3 separate experiments.

[9] = tested on: endogenous EMX1, AAVS and HPRT genes in Mouse (ESF-158) embryonic stem cells; assay: Delivery of multiple RGEN:gRNA complexes: EMX1, AAVS, HPRT editing in mouse ES cells (T7E1); assay type: cell-based
Experimental: as §1, §2

## GLWRALWRLLRSLWRLLWKV [CADY, reference compound]
[1]
  complex formation with CAS9: did not form any complex
[1]; Cas9:gRNA, molar ratio 20/1
  PI: 0.6 and 0.6 ± 0.2
  Size: 350±20 nm
  zeta: 45 ± 8 MV
[1]; molar ratio 10:1
  formation of stable particles with preloaded CAS9:gRNA complex: neither CADY nor VEPEP-9 formed stable particles
[2]
  reduction of EGFP-positive cells: 18%
[2]; HEK
  decrease in EGFP expression: 42%
[2]; 1 nM CAS9:gRNA
  reduction of EGFP-expressing cells / loss of EGFP expression: no change in EGFP expression
[2]; U2OS
  decrease in EGFP expression: 33%
[2]; both cell lines (U2OS, HEK), 1 nM CAS9:gRNA
  loss of EGFP expression: no change in EGFP expression
[3]; JURKAT
  Mean indel Frequency ± s.e.m: 12 ± 9%
[3]; K562
  Mean indel Frequency ± s.e.m: 15 ± 9%
[4]; Donor 1, CAS9/sgRNA 2.5 μg/5 μg
  Mean indel Frequency ± s.e.m: 0%
[4]; Donor 1, CAS9/sgRNA 5 μg/10 μg
  Mean indel Frequency ± s.e.m: 0%
[4]; Donor 2, CAS9/sgRNA 2.5 μg/5 μg
  Mean indel Frequency ± s.e.m: 0%
[4]; Donor 2, CAS9/sgRNA 5 μg/10 μg
  Mean indel Frequency ± s.e.m: 0%
[4]; T cells from the two donors, 5 μg/10 μg CAS9/gRNA
  mean indel frequency of hPD1 gene: No editing

## N=C(N)NCCC[C@H](NC(=O)[C@H](CCCNC(=N)N)NC(=O)[C@H](CCCCN)NC(=O)[C@H](CCCNC(=N)N)NC(=O)[C@@H]1CCCN1C(=O)[C@H](Cc1c[nH]c2ccccc12)NC(=O)[C@H](CCC(=O)O)NC(=O)[C@H](CCCNC(=N)N)NC(=O)[C@H](Cc1c[nH]c2ccccc12)NC(=O)[C@H](Cc1c[nH]c2ccccc12)NC(=O)[C@H](CCCNC(=N)N)NC(=O)[C@H](CCC(=O)O)NC(=O)[C@H](Cc1c[nH]c2ccccc12)NC(=O)[C@H](Cc1c[nH]c2ccccc12)NC(=O)[C@H](CCCCN)NC(=O)CCN)C(=O)O [VEPEP-3b]
[1]; Cas9:gRNA, molar ratio 10/1
  PI: 0.35 ± 0.1
  Size: 38 ± 4 nm
  zeta: 27.0 ± 4 MV
[1]; Cas9:gRNA, molar ratio 20/1
  PI: 0.37 ± 0.1
  Size: 51 ± 5 nm
  zeta: 25.3 ± 7 MV
[1]; Cas9, molar ratio 10/1
  Pt: 0.33 ± 0.1
  zeta: 21.0 ± 5 mV
[1]; Cas9, molar ratio 10/1, 0.9% NaCl
  Size: 45 ± 5 nm
[1]; Cas9, molar ratio 20/1
  Pt: 0.35 ± 0.1
  Size: 52 ± 5 nm
  zeta: 17.0 ± 5 mV
[1]; with CAS9 and CAS9:gRNA complex, molar ratio 10:1 or 20:1
  formation of stable nanoparticles: able to form stable nanoparticles
[1]; with CAS9 and CAS9:gRNA, molar ratio 10:1 or 20:1
  Mean diameter: about 50 nm
[2]
  reduction of EGFP-positive cells: 87%
[2]; HEK, 1 nM CAS9:gRNA
  reduction of number of EGFP-expressing cells: 71%
[2]; HEK
  decrease in EGFP expression: 93%
[2]; 1 nM CAS9:gRNA
  reduction of EGFP-expressing cells / loss of EGFP expression: 55%
[2]; U2OS, 1 nM CAS9:gRNA
  reduction of number of EGFP-expressing cells: 68%
[2]; U2OS
  decrease in EGFP expression: 92%
[5]
  toxicity: no toxicity
[6]; JURICAT, CAS9/sgRNA 25 nM
  Mean indel Frequency ± S.E.M: 69% and 69 ± 8%
[6]; JURKAT, CAS9/sgRNA 50 nM
  Mean indel Frequency ± S.E.M: 71 ± 5%
[6]; K562, CAS9/sgRNA 25 nM
  Mean indel Frequency ± S.E.M: 79% and 79 ± 5%
[6]; K562, CAS9/sgRNA 50 nM
  Mean indel Frequency ± S.E.M: 81 ± 7%
[6]; U2OS, CAS9/sgRNA 25 nM, 20:1
  Mean indel Frequency ± S.E.M: 75% and 75 ± 7%
[6]; U2OS, CAS9/sgRNA 50 nM
  Mean indel Frequency ± S.E.M: 77 ± 5%
[7]; JURKAT, EGFP
  Mean indel Frequency ± S.E.M: 84 ± 7%
[7]; JURKAT, EMX1
  Mean indel Frequency ± S.E.M: 79 ± 7%
[7]; U2OS, EGFP, 25 nM each complex
  Mean indel Frequency ± S.E.M: 80 ± 5%
[7]; U2OS, EMX1
  Mean indel Frequency ± S.E.M: 82 ± 6%
[8]; H9, AAVS
  Mean indel Frequency ± S.E.M: 71 ± 7%
[8]; H9, EMX1
  Mean indel Frequency ± S.E.M: 67 ± 6%
[8]; H9, HPRT
  Mean indel Frequency ± S.E.M: 70 ± 4%
[8]; U2OS, AAVS
  Mean indel Frequency ± S.E.M: 75 ± 7%
[8]; U2OS, EMX1, 20 nM each complex
  Mean indel Frequency ± S.E.M: 82 ± 5%
[8]; U2OS, HPRT
  Mean indel Frequency ± S.E.M: 84 ± 6%
[9]; AAVS
  Mean indel Frequency ± S.E.M: 79 ± 5%
[9]; EMX1
  Mean indel Frequency ± S.E.M: 84 ± 6%
[9]; HPRT
  Mean indel Frequency ± S.E.M: 85 ± 7%
